# Test results taken from US9572862B2, “Methods for promoting lipolysis and oxidation in liver and adipose tissue using catestatin” (The Regents of the University of California, priority 2012, dated 2017).
# Entries after “also recorded” stand apart in the source; their conditions may differ. No end group written: not given here.
# How the values were obtained:
# [1] = tested on: adipose tissue explants from Ob/Ob mice; assay: Lipolysis and fatty acid oxidation in adipose explants of Ob/Ob mice; format: cell-based
# Procedure: FIG. 8. Lipolysis and fatty acid oxidation in the adipose tissue explants of DIO and Ob/Ob mice after treatment with saline or CST for 16 days. Explants were incubated with saline or leptin (1 μM) for 3 hr and the concentrations of glycerol (A&C) and NEFA (B&D) released into the media from DIO (A&B) and Ob/Ob (C&D) explants were determined as a measure of lipolysis. Homogenates of the explants from DIO (E) and Ob/Ob […] were used to determine their capacity for oxidation of U-^14C-palmitate in response to the treatment with saline, CST, leptin and CST+leptin. The ^14CO2 released was captured and counted as the measure of fatty acid oxidation.
# (§1) Adipose tissue explants were prepared as described (42). Epididymal fat pads from 12 hr fasted WT, Chga-KO, DIO and Ob/Ob mice with or without CST treatment were collected in Kreb-Ringer-phosphate (KRP) buffer containing 10 mM Hepes and 0.5% BSA. Tissues were minced to 1-2 mm size and treated with 100 nM CST, 1 μM leptin, or saline for 30 min (for signaling analysis) or 3 hr (for lipolysis and β-oxidation assays). Explants were also treated acutely with CST, leptin, a combination, or saline. At the end, incubation media were saved for analysis of glycerol and fatty acid release. Explants were washed prior to homogenization for immunoblotting and analysis of fatty acid oxidation.
# Oxidation of radiolabeled palmitate in the homogenates of adipose tissue explants as described previously (45). For oxidation studies of cultured cells, HepG2 (hepatocytes) and 3T3-L1 preadipocytes were obtained from ATCC and cultured following supplier's protocol. Confluent 3T3-L1 cultures were differentiated into adipocytes by treating with a cocktail of dexamethasone (100 nM), IBMX ([…]) and insulin (100 nM) for 10 days. Media were then switched to serum-free DMEM with 1% BSA. Hepatocytes were assayed for lipogenesis and fat oxidation in response to CST treatment. Serum-free cultures were treated with CST (100 nM) for 24 hr followed by a 2 hr incubation with U^14C-palmitate (0.5 μCi/ml). Fatty acid oxidation in cells was determined by modifying a published method (46). Specifically, the culture media in 24-well plates were acidified with 10% HClO4 after incubation with the labeled fatty acid and immediately covered with a thick filter paper sheet (cut to size) soaked in 2 N NaOH and placed underneath the plastic lid. The whole plate was sealed with parafilm. After further incubation for 2 hr, the filter paper sheet was marked as circles around the rim of the wells and then the circles were excised. The filter discs were counted to determine the amount of ^14CO2 absorbed in the papers. Cells in the culture wells were lysed in 1 N NaOH and protein content was assayed using Folin's reagent (BioRad, Hercules, Calif.).
# CST-KO mice = assay: CST supplementation in NCD-fed CST-KO mice; format: in vivo
# Procedure: FIG. 13. Changes in biochemical and physiological parameters in NCD-fed CST-KO mice after CST (5 μg/g BW) supplementation. […] Figures in parentheses indicate number of animals.
# [2] = tested on: AMPK and Stat3 phosphorylation; assay: AMPK and Stat3 signaling in adipose tissue explants from Chga-KO mice; format: cell-based
# Procedure: FIG. 6. Regulation of AMPK and Stat3 signaling by CST in adipose tissue explants. Explants from Chga-KO mice were treated with saline or CST (100 nM for 30 min) and immunoblotted for pAMPK and AMPK (A). Adipose explants from WT and Chga-KO mice were immunoblotted for pAMPK and AMPK after treatment with saline or leptin (1 μM) for 30 min (B). pAMPK and AMPK (C) and pStat3 and Stat3 (D) signaling in adipose explants from WT and Chga-KO mice after treatment for 30 min with saline, CST (100 nM), leptin (1 μM) or leptin plus CST.
# as §1
# Adipose tissue explants after treatments ex vivo and tissues from mice treated in vivo were homogenized in a buffer containing phosphatase and protease inhibitors (20 mM Tris/HCl (pH 7.5), 250 mM sucrose, 2 mM EDTA, 2 mM EGTA, 2 mM Na3VO4, 10 mM NaF, 2 mM Na4P2O7, 1 mM phenylmethylsulfonyl fluoride, 20 μg/ml leupeptin, 10 μg/ml aprotinin, and 1 μM LR-microcystin) as described (38,44). Homogenates were subjected to SDS-PAGE and immunoblotted. Primary antibodies for AMPK and Stat3 were from Cell Signaling Technology (Beverly, Mass.). The chemiluminescence kit was from Pierce (Rockford, Ill.).
# HFD-fed CST-KO mice = assay: CST supplementation in HFD-fed CST-KO mice; format: in vivo
# Description: FIG. 12. Metabolic phenotypes in HFD-fed CST-KO mice. (A) CST-KO mice eat more 60% HFD than WT. (B) CST-KO mice gained more weight than WT. (C) Heightened glucose resistance at baseline in CST-KO mice compared to WT mice. […] Figures in parentheses indicate number of animals.
# primary adipocytes = assay: Lipolytic glycerol release from primary adipocytes; format: cell-based, mice
# Procedure: Mice were fasted for 12 hr prior to blood draw. Triglycerides (TG) and non-esterified fatty acids (NEFA) were assayed using kits from Wako Diagnostics (Richmond, Va.). Glycerol was assayed using a kit from Sigma (St Louis, Mo.). Media from the explant cultures and mouse serum were analysed for glycerol and NEFA as a measure of lipolysis. ELISA kits were used to determine plasma levels of leptin, adiponectin (Millipore, Billerica, Mass.) and CST (Bachem, Torrance, Calif.). For CST assay, plasma samples and reference standards were passed through mini C18 columns and the flow-through fractions were assayed. The same kits were used for measurements in culture media.
# Primary adipocytes were isolated from epididymal fat pads essentially as described (43). Adipose tissues from WT and Chga-KO mice were minced in Krebs-Ringer bicarbonate-Hepes (KRBH) buffer, pH 7.4, containing 10 mM bicarbonate, 30 mM Hepes, 200 nM adenosine, 2.5 mM glucose and 1% fatty-acid-free BSA, and digested for 30-40 min with Type I collagenase (10 mg/g tissue; Invitrogen, Carlsbad, Calif.) with gentle swirling in a 37° C. incubator. The digestion mixture was then filtered through a nylon strainer and centrifuged at 400×g for 1 min. The oily layer (released from broken cells) above floating fat cells was skimmed off, and fat cells were recovered from the top and washed three times with warm KRBH.
# [3] = CST-KO mice, CST 5 μg/g BW for 8 days
sequence,measurement,setting,value
SSMKLSFRARAYGFRGPGPQL [CST],palmitate oxidation,[1],not CST alone
same,lipolysis (glycerol and NEFA release),"[1]; CST in vivo 16 days, leptin 1 μM ex vivo 3 hr",did not influence lipolysis
same,plasma NEFA,CST-KO mice; [3],reduced; also recorded: decreased
same,plasma TG,CST-KO mice; [3],reduced; also recorded: decreased
same,plasma catecholamine,CST-KO mice; [3],reduced; also recorded: normalized high plasma catecholamines
same,plasma glycerol,CST-KO mice; [3],increase; also recorded: increased plasma glycerol
same,plasma insulin,CST-KO mice; [3],reduced; also recorded: normalized the plasma insulin concentration to the WT level; also recorded: normalized hyperinsulinemia
same,plasma leptin,CST-KO mice; [3],reduced; also recorded: normalized hyperleptinemia
same,hypertensive phenotype,"CST-KO mice; CST-KO mice, CST supplementation",normalized
same,glucose tolerance by IP-GTT,"CST-KO mice; NCD-fed CST-KO mice, CST 5 μg/g BW for 8 days",restored glucose tolerance; also recorded: improved glucose tolerance; also recorded: improved insulin resistance
same,insulin sensitivity / glucose tolerance by IP-ITT,"CST-KO mice; NCD-fed CST-KO mice, CST supplementation",improved insulin sensitivity; also recorded: restored glucose tolerance; also recorded: improved insulin resistance
same,"Stat3 phosphorylation, CST alone",[2],lack of CST stimulation of Stat3 phosphorylation
same,leptin's ability to stimulate the phosphorylation of AMPK,[2]; CST plus leptin,restored
same,leptin's ability to stimulate the phosphorylation of Stat3,[2]; CST plus leptin,restored
same,"AMPK phosphorylation, CST alone",[2]; acute CST 100 nM 30 min,stimulated AMPK phosphorylation; also recorded: significantly stimulated pAMPK signaling
same,basal plasma insulin level,HFD-fed CST-KO mice,decreased; also recorded: reduced hyperinsulinemia
same,insulin sensitivity (IP-ITT),HFD-fed CST-KO mice; CST 5 μg/g BW,improved insulin sensitivity; also recorded: reversed glucose resistance to glucose tolerance
same,effect on the lipolytic effect of isoproterenol,"primary adipocytes; adipocytes, with isoproterenol 10 μM",potentiated
same,glycerol release (lipolysis),"primary adipocytes; primary adipocytes, substance alone",stimulated glycerol release
